Data published in publication PMC12528448, “Resistance to CDK7 inhibitors directed by acquired mutation of a conserved residue in cancer cells” (The EMBO Journal, 2025).
“And” between values parts separate entries of the source, which are not always exact repeats. Equal entries are not always repeated. “Also recorded” adds a separate entry of the source.

How the values were obtained:
[1] = test system: PolII CTD Ser5 and CDK2 Thr160 phosphorylation in 22Rv1-SamR cells; assay: Immunoblotting of CDK7 targets, 22Rv1-SamR; type: cell-based, human; settings: for Relative Density P-Ser5 / Relative Density ß-actin: SamR
Description: (§1) Whole-cell lysates were prepared in RIPA buffer (Sigma-Aldrich), supplemented with protease and phosphatase inhibitor cocktails (Roche). Protein sample concentrations were determined using the Pierce BCA Protein Assay kit (ThermoFisher Scientific). […] PolII CTD phosphorylation antibodies (P-Ser2 (ab5095) and P-Ser5 (ab5131), used at 1:10,000 dilution), as well as total PolII (ab817; 1:2000 dilution) and β-actin (ab6276; 1:100,000 dilution) were purchased from Abcam.

[2] = test system: PolII and CDK2 phosphorylation in MCF7-CDK7-D97N cells; assay: Immunoblotting of CDK7 targets, MCF7-CDK7-D97N; type: cell-based, human; settings: 24 h, immunoblot
Description: as §1

SMILES: CN(C)C/C=C/C(=O)Nc1ccc(C(=O)N[C@@]2(C)CCC[C@@H](Nc3ncc(Cl)c(-c4c[nH]c5ccccc45)n3)C2)nc1 [SY-1365]
- CDK2 phosphorylation at Thr160 ([1]; 22Rv1-SamR, 24 h, immunoblot): significant reduction
- PolII CTD Ser5 phosphorylation ([1]; 22Rv1-SamR, 24 h, immunoblot): significantly lower; also recorded: significant reduction
- Relative Density P-Ser5 ([1]; 5nM SY1365, Vehicle = 1.00): 0.61 and 0.57 and 0.37
- Relative Density ß-actin ([1]; 5nM SY1365, Vehicle = 1.00): 1.11 and 1.02 and 0.97
- Relative Density P-Ser5 ([1]; 50nM SY1365, Vehicle = 1.00): 0.54 and 0.49 and 0.41
- Relative Density ß-actin ([1]; 50nM SY1365, Vehicle = 1.00): 1.10 and 1.08 and 1.01
- Inhibition of PolII and CDK2 phosphorylation [2]: maintained
